Values of other authors in patent publication US10926237B2, “Soluble corrosion resistant sol-gel” (THE BOEING COMPANY, priority 2018, dated 2021).

- water solubility (in words): water soluble
Compound: Sc1nnc(S)s1 [2,5-Dimercapto-1,3,4-thiadiazole, 2,5-dimercapto-1,3,4-thiadiazole]
